This note sets out measurements from ChEMBL document CHEMBL4017541, “Membrane-Active Hydantoin Derivatives as Antibiotic Agents” (J Med Chem, 2017).

The structures appear in SMILES notation. Converted amounts (≈) assume the structure as drawn.

In one assay the test system is Staphylococcus aureus. In words: Antimicrobial activity against methicillin resistant Staphylococcus aureus ATCC 33591 after 16 hrs. The format is functional. To be noted: ATCC 33591, 16 h.
A further assay has as its system Pseudomonas aeruginosa. In words: Antimicrobial activity against Pseudomonas aeruginosa ATCC 27853 after 16 hrs. The note with it: ATCC 27853, 16 h. It is filed as functional.
A further assay relates to Escherichia coli. In words: Antimicrobial activity against Escherichia coli ATCC 25922 after 16 hrs. It is filed as functional. The note with it: ATCC 25922, 16 h.
The next assay relates to Enterococcus faecalis. The assay can be described thus: Antimicrobial activity against vancomycin resistant Enterococcus faecalis ATCC 700802 after 16 hrs. The note with it: ATCC 700802, 16 h. The format is functional.
The subject of another assay is Klebsiella pneumoniae. In words: Antimicrobial activity against Klebsiella pneumoniae ATCC 13383 after 16 hrs. The format is functional. The note with it: ATCC 13383, 16 h.
Assay [1] has as its system Staphylococcus epidermidis. In words: Antimicrobial activity against methicillin resistant Staphylococcus epidermidis RP62A after 16 hrs. The format is functional.
Assay [2] can be described thus: Retention time of compound by HPLC analysis.

On to `CCCCCCCCCC(=O)N[C@@H](CCCCN)CN1CC(=O)N(CC)C1=O`, for which the MIC (in the assay with Staphylococcus aureus; against Pseudomonas aeruginosa; against Escherichia coli; in the assay with Enterococcus faecalis; in the assay on Klebsiella pneumoniae; in assay [1]) was more than 50 µg/mL each time. Moreover, the Retention time in assay [2] is less than 26 min.

As for `CCCCCCCCCCCCCC(=O)N[C@@H](CCCCN)CN1CC(=O)N(c2cccc(Cl)c2)C1=O`, the MIC against Staphylococcus aureus was 12.5 µg/mL (≈ 23.4 µM); in the assay with Pseudomonas aeruginosa, more than 50 µg/mL; with Escherichia coli, more than 50 µg/mL; with Enterococcus faecalis, 12.5 µg/mL (≈ 23.4 µM); in the assay on Klebsiella pneumoniae, more than 50 µg/mL; in assay [1] it was 12.5 µg/mL (≈ 23.4 µM).

For `CCCCCCCCCCCCCCCC(=O)N[C@@H](CCCCN)CN1CC(=O)N(CCCC)C1=O`, the MIC was 6.25 µg/mL (≈ 12.3 µM) against Staphylococcus aureus; more than 50 µg/mL in the assay with Pseudomonas aeruginosa; more than 50 µg/mL with Escherichia coli; 6.25 µg/mL (≈ 12.3 µM) in the assay with Enterococcus faecalis; more than 50 µg/mL in the assay on Klebsiella pneumoniae; 6.25 µg/mL (≈ 12.3 µM) in assay [1].

Take `CCCCCCCCCCCCCCCC(=O)N[C@@H](CCCCN)CN1CC(=O)N(c2ccc(OC)cc2)C1=O`: the MIC is 3.12 µg/mL (≈ 5.58 µM) against Staphylococcus aureus; more than 50 µg/mL in the assay with Pseudomonas aeruginosa; more than 50 µg/mL in the assay with Escherichia coli; 6.25 µg/mL (≈ 11.2 µM) in the assay on Enterococcus faecalis; more than 50 µg/mL with Klebsiella pneumoniae; 6.25 µg/mL (≈ 11.2 µM) in assay [1].

With `CCCCCCCCCCCCCC(=O)N[C@@H](CCCCN)CN1CC(=O)N(c2ccc(OC)cc2)C1=O`, the MIC in the assay on Staphylococcus aureus was 6.25 µg/mL (≈ 11.8 µM); with Pseudomonas aeruginosa, more than 50 µg/mL; in the assay with Escherichia coli, 6.25 µg/mL (≈ 11.8 µM); in the assay with Enterococcus faecalis, 6.25 µg/mL (≈ 11.8 µM); in the assay with Klebsiella pneumoniae it was 25 µg/mL (≈ 47.1 µM); in assay [1], 6.25 µg/mL (≈ 11.8 µM).

`CCCCCCCCCCCCCCCC(=O)N[C@@H](CCCCN)CN1CC(=O)N(C2CCCCC2)C1=O`: the MIC against Staphylococcus aureus is 3.12 µg/mL (≈ 5.83 µM); against Pseudomonas aeruginosa it was more than 50 µg/mL; in the assay with Escherichia coli, more than 50 µg/mL; against Enterococcus faecalis it was 25 µg/mL (≈ 46.7 µM); in the assay on Klebsiella pneumoniae, more than 50 µg/mL; in assay [1] it was 25 µg/mL (≈ 46.7 µM).

`CCCCCCCCCCCCCC(=O)N[C@@H](CCCCN)CN1CC(=O)N(CCCC)C1=O`: the MIC is 6.25 µg/mL (≈ 13 µM) against Staphylococcus aureus; more than 50 µg/mL against Pseudomonas aeruginosa; 6.25 µg/mL (≈ 13 µM) against Escherichia coli; 6.25 µg/mL (≈ 13 µM) in the assay with Enterococcus faecalis; 12.5 µg/mL (≈ 26 µM) against Klebsiella pneumoniae; 6.25 µg/mL (≈ 13 µM) in assay [1].

With `CCCCCCCCCCCCCCCC(=O)N[C@@H](CCCCN)CN1CC(=O)N(C23CC4CC(CC(C4)C2)C3)C1=O`, the MIC (against Staphylococcus aureus; in the assay on Pseudomonas aeruginosa; against Escherichia coli; in the assay with Enterococcus faecalis; with Klebsiella pneumoniae; in assay [1]) was more than 50 µg/mL each time.

As to `CCCCCCCCCCCC(=O)N[C@@H](CCCCN)CN1CC(=O)N(C23CC4CC(CC(C4)C2)C3)C1=O`, the MIC in the assay with Staphylococcus aureus was 6.25 µg/mL (≈ 11.8 µM); with Pseudomonas aeruginosa, more than 50 µg/mL; with Escherichia coli, 12.5 µg/mL (≈ 23.5 µM); with Enterococcus faecalis, 6.25 µg/mL (≈ 11.8 µM); in the assay with Klebsiella pneumoniae, more than 50 µg/mL; in assay [1], 6.25 µg/mL (≈ 11.8 µM).

Turning to `CCCCCCCCCCCCCC(=O)N[C@@H](CCCCN)CN1CC(=O)N(C2CCCCC2)C1=O`, the minimum inhibitory concentration (MIC) was 3.12 µg/mL (≈ 6.16 µM) with Staphylococcus aureus; more than 50 µg/mL in the assay on Pseudomonas aeruginosa; 12.5 µg/mL (≈ 24.7 µM) in the assay with Escherichia coli; 6.25 µg/mL (≈ 12.3 µM) in the assay on Enterococcus faecalis; 6.25 µg/mL (≈ 12.3 µM) in the assay on Klebsiella pneumoniae; 6.25 µg/mL (≈ 12.3 µM) in assay [1].

In the case of `CCCCCCCCCCCCCCCC(=O)N[C@@H](CCCCN)CN1CC(=O)N(c2cccc(Cl)c2)C1=O`, the minimal inhibitory concentration (MIC) was 12.5 µg/mL (≈ 22.2 µM) against Staphylococcus aureus; more than 50 µg/mL in the assay with Pseudomonas aeruginosa; more than 50 µg/mL against Escherichia coli; 12.5 µg/mL (≈ 22.2 µM) against Enterococcus faecalis; more than 50 µg/mL against Klebsiella pneumoniae; 12.5 µg/mL (≈ 22.2 µM) in assay [1].

Turning to `CCCCCCCCCCCCCC(=O)N[C@@H](CCCCN)CN1CC(=O)N(C23CC4CC(CC(C4)C2)C3)C1=O`, the MIC in the assay with Pseudomonas aeruginosa is more than 50 µg/mL; against Escherichia coli, more than 50 µg/mL; in the assay with Enterococcus faecalis, 6.25 µg/mL (≈ 11.2 µM); against Klebsiella pneumoniae, more than 50 µg/mL; in assay [1], 3.15 µg/mL (≈ 5.64 µM).

As to `O=C1CN(/N=C/c2ccc([N+](=O)[O-])o2)C(=O)N1` [NITROFURANTOIN], the MIC is 12.5 µg/mL (≈ 52.5 µM) against Staphylococcus aureus; more than 50 µg/mL with Pseudomonas aeruginosa; 6.25 µg/mL (≈ 26.2 µM) against Escherichia coli; 12.5 µg/mL (≈ 52.5 µM) with Enterococcus faecalis; 25 µg/mL (≈ 105 µM) against Klebsiella pneumoniae; 6.25 µg/mL (≈ 26.2 µM) in assay [1].

As usually defined, the MIC is the lowest concentration that inhibits growth of the organism.
